Source: patent publication US20080064682A1, “Pyrazole Derivatives” (DAIICHI PHARMACEUTICAL CO., LTD., priority 2004, published 2008)
Read-outs that look alike come from different tables or passages of the source.

Columns and labels:
[1] = tested on: collagen-induced platelet aggregation; assay: Platelet aggregation-inhibitory action (collagen-induced aggregation in platelet rich plasma); assay type: cell-based; details: human PRP, 37° C., read-out: Inhibition of collagen-induced platelet aggregation, IC50
Procedure: The blood was centrifuged at 180×g for 10 minutes to separate platelet rich plasma (PRP) from the blood. Upper layer PRP was removed, and the lower layer was centrifuged at 1600×g for 10 minutes, to thereby recover the upper layer platelet poor plasma (PPP). A solution (1 μL) of compound of the present invention was added to PRP (200 μL), and the mixture was allowed to stand at 37° C. for 2 minutes. Subsequently, collagen (2 μL) was added to the resultant mixture so as to induce platelet aggregation. Percent platelet aggregation was measured using PAM-12C (SSR Engineering). Optical transmittance of PPP was regarded as an indicator of 100% aggregation. Percent platelet aggregation values of the respective compounds were determined at different concentrations. IC50 values were calculated.

Cyclooxygenase-1 (COX-1) = target: T1, Cyclooxygenase-1 (COX-1) (Ovis aries, UniProt P05979); assay: COX Inhibitor Screening Assay Kit, COX-1 (PGF2α by ELISA); assay type: biochemical; details: 50 μM compound; read-out: Inhibitory effect against COX-1 at 50 μM (% inhibition)
T1 construct: purchased Cayman Chemical Company 560101 and 560121
T1 sequence (P05979 25-600): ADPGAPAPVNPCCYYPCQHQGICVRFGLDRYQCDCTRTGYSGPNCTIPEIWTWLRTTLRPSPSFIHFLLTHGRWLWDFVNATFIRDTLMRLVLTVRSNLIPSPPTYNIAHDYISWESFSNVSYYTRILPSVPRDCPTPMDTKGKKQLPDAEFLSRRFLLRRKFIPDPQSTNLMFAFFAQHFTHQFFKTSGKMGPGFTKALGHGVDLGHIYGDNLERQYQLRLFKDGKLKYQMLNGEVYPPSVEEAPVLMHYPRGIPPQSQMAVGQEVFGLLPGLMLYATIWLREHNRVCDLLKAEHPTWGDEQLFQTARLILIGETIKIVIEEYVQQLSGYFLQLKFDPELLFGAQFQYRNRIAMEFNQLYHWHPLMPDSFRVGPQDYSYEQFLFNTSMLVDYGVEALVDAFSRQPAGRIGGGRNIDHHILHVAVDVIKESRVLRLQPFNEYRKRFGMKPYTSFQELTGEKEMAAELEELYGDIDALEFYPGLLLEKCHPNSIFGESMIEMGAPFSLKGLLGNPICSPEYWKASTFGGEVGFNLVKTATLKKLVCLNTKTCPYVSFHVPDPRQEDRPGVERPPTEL
Procedure: (§1) COX-1 inhibiting activity and COX-2 inhibiting activity of inventive compounds produced in some of the Examples herein were measured by use of a COX Inhibitor Screening Assay Kit (product of Cayman Chemical Company, Catalog Nos. 560101 and 560121).
(§2) Before starting the measurement, a reaction buffer, heme, arachidonic acid, SnCl2, EIA buffer, washing buffer, prostaglandin (PG) screening EIA standard, PG screening acetylcholine esterase (AchE), tracer ([…]), and PG screening EIA antiserum were prepared ready for use.
(§3) Production of PGF in the Presence of COX-1 or COX-2
A reaction mixture containing a compound of the present invention from the Examples (50 μM) and COX-1 or COX-2 was allowed to stand at 37° C. for 10 minutes. Arachidonic acid (10 μL) was added thereto, and the resultant mixture was further allowed to stand at 37° C. for 2 minutes. 1N-Hydrochloric acid (50 μL) was added to the reaction mixture, to thereby stop the reaction. SnCl2 solution (100 μL) was added thereto, and the resultant mixture was allowed to stand at room temperature for 5 minutes.
(§4) (2) Quantitative Determination of PGF2α Using ELISA
Antiserum (rabbit anti-PGF2α antibody, 50 μL) was added to the wells of a 96-well plate that had been coated with mouse anti-rabbit IgG. A solution of PGF2α-containing mixture obtained above (2000-fold dilution, 50 μL) and an AchE tracer (50 μL) were sequentially added to each well, and the mixture was allowed to stand at room temperature for 18 hours. The wells were washed 5 times with the washing buffer to remove an excessive AchE tracer, and an Ellman reagent (200 μL) was added. After keeping the plate in a dark room for 60 minutes, absorbance was measured at 405 nm.
(3) Calculation of Inhibitory Activity of the Compounds of the Present Invention
(§5) A calibration curve was obtained by use of a PG screening EIA standard, and the production amount of PGF2α was determined from the absorbance Percent inhibition against COX-1 or COX-2 in the presence of a 50 μM of the compound was calculated.

[2] = tested on: collagen-induced platelet aggregation; details: background art, cited from earlier work
Cyclooxygenase-2 (COX-2) = target: T2, Cyclooxygenase-2 (COX-2) (Homo sapiens, UniProt P35354); assay: COX Inhibitor Screening Assay Kit, COX-2 (PGF2α by ELISA); assay type: biochemical; details: 50 μM compound; read-out: Inhibitory effect against COX-2 at 50 μM (% inhibition)
T2 construct: purchased Cayman Chemical Company 560101 and 560121
T2 sequence (P35354 18-604): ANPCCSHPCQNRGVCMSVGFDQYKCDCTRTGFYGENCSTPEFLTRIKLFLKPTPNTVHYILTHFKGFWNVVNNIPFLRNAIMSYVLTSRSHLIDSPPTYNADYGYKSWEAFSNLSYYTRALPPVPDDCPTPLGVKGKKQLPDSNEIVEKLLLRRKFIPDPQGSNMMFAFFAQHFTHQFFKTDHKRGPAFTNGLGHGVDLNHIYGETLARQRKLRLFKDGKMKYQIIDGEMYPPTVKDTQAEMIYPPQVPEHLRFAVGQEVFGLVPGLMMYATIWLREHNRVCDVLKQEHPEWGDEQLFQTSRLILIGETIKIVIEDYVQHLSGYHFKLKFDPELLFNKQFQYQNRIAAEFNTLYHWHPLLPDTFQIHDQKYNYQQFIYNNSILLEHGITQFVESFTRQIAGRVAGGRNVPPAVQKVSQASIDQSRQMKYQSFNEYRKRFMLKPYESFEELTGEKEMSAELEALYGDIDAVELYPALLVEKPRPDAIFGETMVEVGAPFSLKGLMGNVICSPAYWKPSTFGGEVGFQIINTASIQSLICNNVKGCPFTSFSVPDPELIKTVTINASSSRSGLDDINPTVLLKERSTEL
Procedure: as §1, §2, §3
A reaction mixture containing a compound of the present invention from the Examples (50 μM) and COX-1 or COX-2 was allowed to stand at 37° C. for 10 minutes. Arachidonic acid (10 μL) was added thereto, and the resultant mixture was further allowed to stand at 37° C. for 2 minutes. […]
as §4
Antiserum (rabbit anti-PGF2α antibody, 50 μL) was added to the wells of a 96-well plate that had been coated with mouse anti-rabbit IgG. […] After keeping the plate in a dark room for 60 minutes, absorbance was measured at 405 nm. […]
as §5

Structure (SMILES) | IC50 [1] [nM] | inhibition at 50 µM (Cyclooxygenase-1 (COX-1)) [%] | platelet aggregation inhibitory activity compared with inhibitory activity against COX-2 [2] | inhibition at 50 µM (Cyclooxygenase-2 (COX-2)) [%] | IC50 ([2]; read-out: IC50 value against collagen-induced platelet aggregation) [nM]
Cc1ccc(-c2cc(C(=O)N3CCCCN3)nn2-c2cccnc2)nc1 [Example 57, 1-[5-(5-Methylpyridin-2-yl)-1-(pyridin-3-yl)-1H-pyrazole-3-carbonyl]hexahydropyridazine] | 140 | -17.4 |  |  | 
Cc1ccc(-c2cc(C(=O)N3CCN(C)C(=O)C3)nn2-c2cccnc2)nc1 [Example 71, 1-[5-(5-Methylpyridin-2-yl)-1-(pyridin-3-yl)-1H-pyrazole-3-carbonyl]-4-methyl-3-oxopiperazine] | 270 | 18.1 |  |  | 
C=C1CCN(C(=O)c2cc(-c3cn(C)cn3)n(-c3cccnc3)n2)CC1 [Example 73, 1-[5-(1-Methyl-1H-imidazol-4-yl)-1-(pyridin-3-yl)-1H-pyrazole-3-carbonyl]-4-methylenepiperidine] | 78 | 11.9 |  |  | 
Cc1ccc(-c2cc(C(=O)N3CCC(F)CC3)nn2-c2cccnc2)nc1 [Example 33] | 31.3 | -16.7 |  |  | 
Cn1cnc(-c2cc(C(=O)N3CCC(F)(F)CC3)nn2-c2cccnc2)c1 [Example 70, 1-[5-(1-Methyl-1H-imidazol-4-yl)-1-(pyridin-3-yl)-1H-pyrazole-3-carbonyl]-4,4-difluoropiperidine] | 280 | 5.5 |  |  | 
O=C(c1cc(-c2ccc(CO)cn2)n(-c2cccnc2)n1)N1CCC(F)(F)CC1 [Example 65, 1-[5-(5-Hydroxymethylpyridin-2-yl)-1-(pyridin-3-yl)-1H-pyrazole-3-carbonyl]-4,4-difluoropiperidine] | 130 | 5.9 |  |  | 
COc1ccc(-c2cc(C(F)F)nn2-c2ccc(S(N)(=O)=O)cc2)cc1F [compound (B)] |  |  | not so potent |  | 
Cc1ccc(-c2cc(C(=O)N3CCC(F)(F)CC3)nn2-c2cccnc2)nc1 [Example 15, 1-[5-(5-Methyl-2-pyridyl)-1-(3-pyridyl)-1H-pyrazole-3-carbonyl]-4,4-difluoropiperidine] | 9 | 8.1 |  |  | 
Cc1ccc(-c2cc(C(=O)N3CCN(C)CC3)nn2-c2cccnc2)nc1 [Example 67, 1-[5-(5-Methylpyridin-2-yl)-1-(pyridin-3-yl)-1H-pyrazole-3-carbonyl]-4-methylpiperazine] | 190 | -21 |  |  | 
COC1CCN(C(=O)c2cc(-c3ccc(C)cn3)n(-c3cccnc3)n2)CC1 [Example 30, 1-[5-(5-Methyl-2-pyridyl)-1-(3-pyridyl)-1H-pyrazole-3-carbonyl]-4-methoxypiperidine] | 120 | -21.1 |  |  | 
NC(=O)c1ccc(-c2cc(C(=O)N3CCC(F)(F)CC3)nn2-c2cccnc2)nc1 [Example 13, 1-[5-(5-Carbamoyl-2-pyridyl)-1-(3-pyridyl)-1H-pyrazole-3-carbonyl]-4,4-difluoropiperidine] | 130 | 10.3 |  |  | 
O=C(c1cc(-c2ccc(Cl)cn2)n(-c2cccnc2)n1)N1CCC(F)CC1 [Example 29, 1-[5-(5-Chloro-2-pyridyl)-1-(3-pyridyl)-1H-pyrazole-3-carbonyl]-4-fluoropiperidine] | 95 | -1.4 |  | 5.3 | 
CS(=O)(=O)c1ccc(-c2cc(C#N)nn2-c2ccc(F)cc2)cc1 [Compound (A)] |  |  |  |  | 5300
